Experimental data taken from PubChem BioAssay (NCI).
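Method: 48-hour compound exposure of cells in 96-well plates, five concentrations, linear interpolation of endpoints. The concentration for full growth arrest is given as TGI.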

How the values were obtained:
Experiment in all cases: NCI-60 cell line screen, 48 h
OVCAR-8 ovarian = tested on: OVCAR-8 ovarian
PC-3 prostate = tested on: PC-3 prostate
HOP-92 NSCLC = tested on: HOP-92 NSCLC
OVCAR-5 ovarian = tested on: OVCAR-5 ovarian
SF-295 CNS = tested on: SF-295 CNS
SW-620 colon = tested on: SW-620 colon
SR leukemia = tested on: SR leukemia
UACC-62 melanoma = tested on: UACC-62 melanoma

Row | Compound | TGI (OVCAR-8 ovarian) | TGI (PC-3 prostate) | TGI (HOP-92 NSCLC) | TGI (OVCAR-5 ovarian) | TGI (SF-295 CNS) | TGI (SW-620 colon) | TGI (SR leukemia) | TGI (UACC-62 melanoma)
1 | CCOC(=O)c1ccc(Nc2c3c(nc4ccccc24)CCCC3)cc1 | > 100 µM | > 100 µM | > 72.6 µM | > 100 µM | > 100 µM | > 100 µM | > 100 µM | > 100 µM
2 | CC1(C)N=C(C(N)=O)c2ncn(N)c2N1 | > 100 µM | > 100 µM | > 100 µM | > 100 µM | > 100 µM | > 100 µM | > 100 µM | > 100 µM
3 | NC(N)=N/N=C/c1nc2n(c1[N+](=O)[O-])CCS2 | > 100 µM | > 100 µM | > 100 µM | > 100 µM | 98.4 µM | > 100 µM | 88.2 µM | > 100 µM
4 | CC(C)/C(Cl)=N\OC(=O)Nc1ccccc1F | 31.4 µM | 30.9 µM | 4.06 µM | 33.3 µM | 30.3 µM | 3.59 µM | 6.54 µM | 36.6 µM
5 | COC(=O)c1c(O)ccc2c1c1c(n2Cc2ccccc2Cl)C(=O)c2ccccc2C1=O | 51.5 µM | 26.3 µM | 29.8 µM | 39.4 µM | 31.6 µM | – | 47.8 µM | 30.2 µM
6 | COC(=O)/C(=C\Nc1cccc(C)n1)S(=O)(=O)c1ccc(C)cc1 | > 100 µM | > 100 µM | > 100 µM | > 100 µM | > 100 µM | > 100 µM | > 100 µM | 91.5 µM
7 | COC(=O)C1C/C(=C/N(C)C)C(=S)N1 (stereo not given) | > 100 µM | > 100 µM | > 100 µM | > 100 µM | > 100 µM | > 100 µM | > 100 µM | > 100 µM
8 | Nn1c(COc2cccc(OCc3n[nH]c(=S)n3N)c2)n[nH]c1=S | > 100 µM | > 100 µM | > 100 µM | > 100 µM | > 100 µM | > 100 µM | 34.6 µM | > 100 µM
9 | O=C(c1ccccc1)N1CCN(C(=S)N(C(=O)c2ccccc2)c2ccccc2)C1=S | 13.3 µM | 20.5 µM | 20 µM | 42.1 µM | 31.6 µM | > 43.5 µM | > 100 µM | 11.4 µM
10 | S=C(NC1=NCC(CN2CCN(c3ccccc3)CC2)O1)Nc1ccccc1 (stereo not given) | > 100 µM | > 100 µM | > 100 µM | > 100 µM | > 100 µM | > 100 µM | > 100 µM | > 100 µM
11 | COC(=O)CCC(=O)NC1=C(NCc2ccccc2)C(=O)c2ccccc2C1=O | > 100 µM | > 100 µM | 48.2 µM | 98.7 µM | > 100 µM | 59.2 µM | > 100 µM | 33.1 µM
12 | CN(CCn1cnc2c1c(=O)n(C)c(=O)n2C)C1CCCCC1 | > 100 µM | > 100 µM | > 100 µM | > 100 µM | > 100 µM | > 100 µM | > 100 µM | > 100 µM
13 | O=C(/C=C/c1ccc(O)c(O)c1)OCCCc1ccccc1 | – | 24.4 µM | 30.6 µM | 37.3 µM | 38.9 µM | 32 µM | 22.8 µM | 23.6 µM
14 | COC(=O)C(Cc1c(C2Nc3ccccc3C2CC(NC(=O)CNC(C)=O)C(=O)OC)[nH]c2ccccc12)NC(=O)CNC(C)=O (stereo not given) | > 100 µM | > 100 µM | > 100 µM | > 100 µM | > 100 µM | > 100 µM | > 100 µM | > 100 µM
15 | N/C(=N\S(=O)(=O)c1ccc(S(=O)(=O)c2ccccc2)s1)Nc1ccc(Cl)cc1 | 45.1 µM | 29.6 µM | 39.1 µM | 97.6 µM | 47 µM | 44.8 µM | 61.9 µM | 24.4 µM
16 | CCC(CON(C)c1ccccc1)(SC)SC | > 100 µM | > 100 µM | > 100 µM | > 100 µM | > 100 µM | > 100 µM | > 100 µM | > 100 µM
17 | Nc1nc(Cl)c(N)c(NCC2(CO)CC(OCc3ccccc3)C2)n1 (stereo not given) | > 100 µM | > 100 µM | > 100 µM | > 100 µM | > 100 µM | > 100 µM | > 100 µM | > 100 µM
18 | C[C@]12CC[C@H]3[C@@H](CC=C4C[C@@H](N5CCCC5)CC[C@@]43C)[C@@H]1C[C@H](N1CCOCC1)[C@@H]2O | > 100 µM | > 100 µM | > 100 µM | > 100 µM | > 100 µM | > 100 µM | 71.5 µM | > 100 µM
19 | CCCCC(C#N)(OP1(=O)OC(c2ccccc2)C(C)N1C)c1ccccc1 (stereo not given) | 38.8 µM | 32.7 µM | 25.8 µM | 32.2 µM | 32.3 µM | 34.3 µM | 43.9 µM | 29.4 µM
